Test results: patent US20080287398A1, “COLD MENTHOL RECEPTOR-1 ANTAGONISTS” (priority 2007, published 2008)
Values joined by “and” are separate entries in the source; they are usually repeats but may differ in a detail not shown here. Equal entries are not always repeated. Where two headings read alike, the source gives them in different places.

Target: T1, canine TRPM8 (Canis lupus familiaris, UniProt Q1A7N1)
T1 construct: expressed in transfected cells
Experiment: In vitro canine TRPM8 functional assay (Ca2+-sensitive dye, FLIPR/FDSS, icilin activation)
Assay type: cell-based
Conditions: HEK293 cells expressing canine TRPM8, icilin activation; for % I (1 μM): 1 μM compound; for IC50: eight-point dose-response; for % I (0.5 μM): 0.5 μM compound
Description: The functional activity of compounds of Formula (I) was determined by measuring changes in intracellular calcium concentration using a Ca^2+-sensitive fluorescent dye. The changes in fluorescent signal were monitored by a fluorescence plate reader, either a FLIPR™ (Molecular Devices) or FDSS (Hamamatsu).
HEK293 cells stably expressing canine TRPM8 were routinely grown as monolayers in Dulbecco's minimum essential medium supplemented with 10% FBS, 1 mM L-glutamine, 100 units/mL penicillin, 100 ug/mL streptomycin and 400 μg/mL G418. Cells were maintained in 5% CO2 at 37° C. At 24 hrs prior to assay, cells were seeded in clear-base poly-D-lysine coated 384-well plates (BD Biosciences, NJ, USA) at a density of 5,000 cells per well in culture medium and grown overnight in 5% CO2 at 37° C. On assay day, growth media was removed and cells were loaded with Calcium 3 Dye (Molecular Devices) for 35 min at 37° C., under 5% CO2 and then for 25 min at room temperature and atmosphere. Subsequently, cells were tested for agonist-induced increases in intracellular Ca^2+ levels using FLIPR™ or FDSS. Cells were challenged with a compound of Formula (I) (at varying concentrations) and intracellular Ca^2+ was measured for 5 min prior to the addition of icilin to all wells to achieve a final concentration which produces approximately an 80% maximal response.
Basal FI was subtracted prior to normalizing data to percent of maximal response. Curves were generated using the average of quadruplicate wells for each data point, were analyzed using nonlinear regression of either sigmoidal dose response or sigmoidal dose response (variable slope). Finally, the EC50 and IC50 values were calculated with the best-fit dose curve determined by GraphPad Prism.

[1] = HEK293, 1 μM compound, read-out: % I (1 μM)
[2] = HEK293, read-out: % I (1 μM), 1 μM compound
[3] = HEK293, 0.5 μM compound, read-out: % I (0.5 μM)

T1 sequence (Q1A7N1 1-1104): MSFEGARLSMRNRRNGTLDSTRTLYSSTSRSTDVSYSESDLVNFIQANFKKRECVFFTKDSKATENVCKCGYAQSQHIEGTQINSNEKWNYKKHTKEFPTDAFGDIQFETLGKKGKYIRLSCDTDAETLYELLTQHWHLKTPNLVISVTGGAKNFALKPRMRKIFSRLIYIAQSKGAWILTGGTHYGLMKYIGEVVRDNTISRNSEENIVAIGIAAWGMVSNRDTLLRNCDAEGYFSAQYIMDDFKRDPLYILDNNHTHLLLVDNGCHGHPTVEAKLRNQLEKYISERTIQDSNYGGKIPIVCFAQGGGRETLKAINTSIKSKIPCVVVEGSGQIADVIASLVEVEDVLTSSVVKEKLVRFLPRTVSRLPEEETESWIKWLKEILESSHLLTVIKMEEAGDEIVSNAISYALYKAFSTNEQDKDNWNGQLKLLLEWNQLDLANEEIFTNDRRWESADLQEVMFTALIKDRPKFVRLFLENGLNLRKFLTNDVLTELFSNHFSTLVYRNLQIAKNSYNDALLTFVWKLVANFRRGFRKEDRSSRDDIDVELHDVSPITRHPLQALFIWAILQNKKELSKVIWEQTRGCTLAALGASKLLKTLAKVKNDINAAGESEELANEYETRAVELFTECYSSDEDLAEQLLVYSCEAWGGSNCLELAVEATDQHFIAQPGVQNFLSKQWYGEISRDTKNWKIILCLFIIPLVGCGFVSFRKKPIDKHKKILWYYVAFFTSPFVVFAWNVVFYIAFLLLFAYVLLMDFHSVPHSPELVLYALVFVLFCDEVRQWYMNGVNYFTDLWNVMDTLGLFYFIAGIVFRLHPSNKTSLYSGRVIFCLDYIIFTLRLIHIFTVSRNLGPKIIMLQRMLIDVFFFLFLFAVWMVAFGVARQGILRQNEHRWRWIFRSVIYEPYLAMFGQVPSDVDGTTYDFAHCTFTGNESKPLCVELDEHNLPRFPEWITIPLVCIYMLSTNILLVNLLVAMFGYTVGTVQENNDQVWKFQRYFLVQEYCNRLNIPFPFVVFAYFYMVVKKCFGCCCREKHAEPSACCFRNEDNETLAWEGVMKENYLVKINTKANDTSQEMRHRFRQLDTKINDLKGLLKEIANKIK

CC(C)OP(=O)(OC(C)C)C(Cc1cccc(F)c1F)c1cc2ccccc2s1 (stereo not shown) [Cpd 122]
% I (1 μM): 102% | IC50 (read-out: IC50): 0.35 µM

CC(C)OP(=O)(OC(C)C)C(Cc1ccccc1C(F)(F)F)c1sc2ccccc2c1Cl (racemic) [Cpd 173]
% I (0.5 μM): 103% | IC50 (read-out: IC50): 0.14 µM

CC(C)OP(=O)(OC(C)C)C(Cc1cc(C(F)(F)F)ccc1Cl)c1sc2ccccc2c1Cl (stereo not shown) [Cpd 178]
% I (0.5 μM): 79% | IC50 (read-out: IC50): 0.355 µM

CC(C)OP(=O)(OC(C)C)C(Cc1ccc(O)c(F)c1)c1sc2ccccc2c1Br (racemic) [Cpd 227]
% I (0.5 μM): 52%

CCOP(=O)(OCC)C(Cc1ccc(F)cc1)c1sc2ccccc2c1Cl (racemic) [Cpd 284]
% I (0.5 μM): 103% and 102% | IC50 (read-out: IC50): 0.079 µM and 0.065 µM

CC(=O)OCCOP(=O)(OCCOC(C)=O)C(Cc1ccc(F)c(F)c1)c1sc2ccccc2c1Br (racemic) [Cpd 213]
% I (0.5 μM): 100% | IC50 (read-out: IC50): 0.202 µM

CC(C)OP(=O)(OC(C)C)C(Cc1ccc(F)c(F)c1)c1nc2ccccc2s1 (stereo not shown) [Cpd 25, [1-Benzothiazol-2-yl-2-(3,4-difluoro-phenyl)-ethyl]-phosphonic acid diisopropyl ester]
inhibition at 1 µM [1]: 101% | IC50 (read-out: IC50): 0.12 µM and 0.19 µM

CCOP(=O)(OCC)C(Cc1cc(F)c(Cl)cc1Cl)c1sc2ccccc2c1C (stereo not shown) [Cpd 76]
% I (1 μM): 100% | IC50 (read-out: IC50): 0.4 µM

CCOP(=O)(OCC)C(Cc1ccc(C(F)(F)F)cc1)c1sc2ccccc2c1Cl (racemic) [Cpd 285]
% I (0.5 μM): 103% | IC50 (read-out: IC50): 0.125 µM

CCOP(=O)(OCC)C(Cc1ccc(F)c(F)c1)c1sc2ccccc2c1-c1ccsc1 (racemic) [Cpd 208]
% I (0.5 μM): 104% | IC50 (read-out: IC50): 0.104 µM

CCOP(=O)(OCC)C(Cc1cccc(OC(F)(F)F)c1)c1sc2ccccc2c1C (stereo not shown) [Cpd 57]
% I (1 μM): 100% | IC50 (read-out: IC50): 0.26 µM

Cc1c(C(OCc2ccc(F)c(F)c2)P(=O)(CC(C)C)CC(C)C)sc2ccccc12 (stereo not shown) [Cpd 13, 2-[(3,4-Difluoro-benzyloxy)-(diisobutyl-phosphinoyl)-methyl]-3-methyl-benzo[b]thiophene]
inhibition at 1 µM [1]: 100% | IC50 (read-out: IC50): 0.046 µM

CC(C)OP(=O)(OC(C)C)C(Cc1ccc(F)c(C(F)(F)F)c1)c1cc2ccccc2s1 (stereo not shown) [Cpd 125]
% I (1 μM): 103% | IC50 (read-out: IC50): 0.39 µM

CC(C)OP(=O)(OC(C)C)C(Cc1ccc(S(=O)(=O)C(F)(F)F)cc1)c1sc2ccccc2c1Br (stereo not shown) [Cpd 263]
% I (0.5 μM): 103% | IC50 (read-out: IC50): 0.022 µM

CC(C)OP(=O)(OC(C)C)C(Cc1ccc(F)c(Cl)c1)c1sc2ccccc2c1Cl (stereo not shown) [Cpd 253]
% I (0.5 μM): 103% | IC50 (read-out: IC50): 0.034 µM

CCOP(=O)(OCC)C(Cc1ccc(F)c(F)c1)C1=C(C)c2ccccc2S1(=O)=O (stereo not shown) [Cpd 88, [2-(3,4-Difluoro-phenyl)-1-(3-methyl-1,1-dioxo-1H-1λ^6-benzo-[b]thiophen-2-yl)-ethyl]-phosphonic acid diethyl ester]
inhibition at 1 µM [2]: 80% | IC50 (IC50 (μM)): 0.5 µM and 0.54 µM

CCOP(=O)(OCC)C(Cc1cc(C(F)(F)F)ccc1C(F)(F)F)c1sc2ccccc2c1C (stereo not shown) [Cpd 113]
% I (1 μM): 25%

CC(C)OP(=O)(OC(C)C)C(Cc1cc(F)cc(Cl)c1)c1sc2ccccc2c1Cl (stereo not shown) [Cpd 186]
% I (0.5 μM): 104% | IC50 (read-out: IC50): 0.051 µM

COC(=O)COP(=O)(OCC(=O)OC)C(Cc1ccc(F)c(F)c1)c1sc2ccccc2c1Br (stereo not shown) [Cpd 212, {[1-(3-Bromo-benzo[b]thiophen-2-yl)-2-(3,4-difluoro-phenyl)-ethyl]-methoxycarbonylmethoxy-phosphinoyloxy}-acetic acid methyl ester]
inhibition at 0.5 µM [3]: 102% | IC50 (read-out: IC50): 0.119 µM

CCOP(=O)(OCC)C(Cc1cc(Cl)ccc1F)c1sc2ccccc2c1Br (racemic) [Cpd 307]
% I (0.5 μM): 103% | IC50 (read-out: IC50): 0.026 µM

CC(C)OP(=O)(OC(C)C)C(Cc1ccc(F)c(F)c1)c1sc2ccccc2c1C(C)C (stereo not shown) [Cpd 19]
% I (1 μM): 100% | IC50 (read-out: IC50): 0.068 µM

CCOP(=O)(OCC)C(Cc1cc(C(F)(F)F)ccc1F)c1sc2ccccc2c1C (stereo not shown) [Cpd 67]
% I (1 μM): 100% | IC50 (read-out: IC50): 0.33 µM

CCOP(=O)(OCC)C(Cc1cccc(-n2cccc2)c1)c1sc2ccccc2c1Br (stereo not shown) [Cpd 310]
% I (0.5 μM): 102% | IC50 (read-out: IC50): 0.042 µM

CCOP(=O)(OCC)C(Cc1cccc([N+](=O)[O-])c1)c1sc2ccccc2c1Br (stereo not shown) [Cpd 315]
inhibition at 0.5 µM (HEK293, read-out: % I (0.5 μM), 0.5 μM compound): 103% | IC50 (IC50 (μM)): 0.041 µM

CCOP(=O)(OCC)C(Cc1ccccc1Cl)c1sc2ccccc2c1Br (racemic) [Cpd 147]
% I (0.5 μM): 103% | IC50 (read-out: IC50): 0.125 µM

CC(C)OP(=O)(OC(C)C)C(Cc1ccc(S(=O)(=O)C(F)(F)F)cc1)c1sc2ccccc2c1Cl (stereo not shown) [Cpd 264]
% I (0.5 μM): 103% | IC50 (read-out: IC50): 0.029 µM

CCOP(=O)(OCC)C(Cc1ccc(F)cc1C(F)(F)F)c1sc2ccccc2c1Br (racemic) [Cpd 245]
% I (0.5 μM): 103% | IC50 (read-out: IC50): 0.124 µM

CCOP(=O)(OCC)C(Cc1ccc(Cl)cc1)c1sc2ccccc2c1Cl (racemic) [Cpd 293]
% I (0.5 μM): 103% | IC50 (read-out: IC50): 0.156 µM

CCOP(=O)(OCC)C(Cc1ccc(F)c(F)c1)c1sc2ccccc2c1-c1cccc(C(N)=O)c1 (racemic) [Cpd 218]
% I (0.5 μM): 79% | IC50 (read-out: IC50): 0.483 µM

COc1ccc(CC(c2sc3ccccc3c2Br)P(=O)(OC(C)C)OC(C)C)cc1F (racemic) [Cpd 159]
% I (0.5 μM): 103% | IC50 (read-out: IC50): 0.036 µM

CC(C)OP(=O)(OC(C)C)C(Br)(Cc1ccc(F)c(F)c1)c1sc2ccccc2c1Br (stereo not shown) [Cpd 93, [1-Bromo-1-(3-bromo-benzo[b]thiophen-2-yl)-2-(3,4-difluoro-phenyl)-ethyl]-phosphonic acid diisopropyl ester]
inhibition at 1 µM [1]: 80% | IC50 (read-out: IC50): 0.58 µM

CC(C)OP(=O)(OC(C)C)C(Cc1cc(F)cc(F)c1)c1cc2ccccc2s1 (stereo not shown) [Cpd 121]
% I (1 μM): 103% | IC50 (read-out: IC50): 0.35 µM

CC(=O)n1c(C(Cc2ccc(F)c(C(F)(F)F)c2)P(=O)(OC(C)C)OC(C)C)c(Br)c2ccccc21 (stereo not shown) [Cpd 331]
% I (0.5 μM): 101% | IC50 (read-out: IC50): 0.152 µM

CCOP(=O)(OCC)C(Cc1ccc(C(F)(F)F)c(F)c1)c1sc2ccccc2c1Br (racemic) [Cpd 144]
% I (0.5 μM): 101% | IC50 (read-out: IC50): 0.058 µM

CCOP(=O)(OCC)C(Cc1cccc(Cl)c1F)c1sc2ccccc2c1C (stereo not shown) [Cpd 23]
% I (1 μM): 100% | IC50 (read-out: IC50): 0.096 µM

CCOP(=O)(OCC)C(Cc1ccc(O)c(C(F)(F)F)c1)c1sc2ccccc2c1Br (racemic) [Cpd 233]
% I (0.5 μM): 70%

(R)-[1-(3-Bromo-benzo[b]thiophen-2-yl)-2-(4-fluoro-phenyl)-ethyl]-phosphonic acid diisopropyl ester [Cpd 240]
% I (0.5 μM): 98% and 77%

CC(C)OP(=O)(OC(C)C)C(Cc1cccc(C(F)(F)F)c1)c1sc2ccccc2c1Cl (racemic) [Cpd 170]
% I (0.5 μM): 103% | IC50 (read-out: IC50): 0.073 µM

CCOP(=O)(OCC)C(Cc1ccc(F)c(F)c1)c1sc2cc(F)ccc2c1C (stereo not shown) [Cpd 16, [2-(3,4-Difluoro-phenyl)-1-(6-fluoro-3-methyl-benzo[b]-thiophene-2-yl)-ethyl]-phosphonic acid diethyl ester]
inhibition at 1 µM [2]: 100% | IC50 (IC50 (μM)): 0.057 µM and 0.064 µM

CCOP(=O)(OCC)C(Cc1cc(C(F)(F)F)ccc1Cl)c1sc2ccccc2c1C (stereo not shown) [Cpd 99]
% I (1 μM): 100% | IC50 (read-out: IC50): 0.72 µM

CC(C)OP(=O)(OC(C)C)[C@H](Cc1ccc(F)c(C(F)(F)F)c1)c1sc2ccccc2c1Br [Cpd 243, (R)-[1-(3-Bromo-benzo[b]thiophen-2-yl)-2-(4-fluoro-3-trifluoromethyl-phenyl)-ethyl]-phosphonic acid diisopropyl ester]
inhibition at 0.5 µM [3]: 80% | IC50 (read-out: IC50): 0.089 µM

CCOP(=O)(OCC)C(Cc1cccc(C(F)(F)F)c1)c1sc2ccccc2c1Br (stereo not shown) [Cpd 141]
% I (0.5 μM): 100% | IC50 (read-out: IC50): 0.051 µM

CC(C)OP(=O)(OC(C)C)C(Cc1cccc(OC(F)(F)F)c1)c1sc2ccccc2c1Cl (racemic) [Cpd 301]
% I (0.5 μM): 102% | IC50 (read-out: IC50): 0.054 µM

CCOP(=O)(OCC)C(Cc1c(Cl)ccc(C)c1F)c1sc2ccccc2c1C (stereo not shown) [Cpd 60]
% I (1 μM): 100% | IC50 (read-out: IC50): 0.28 µM

CC(C)OP(=O)(OC(C)C)C(Cc1ccc(F)c(F)c1)c1cc2ccccc2o1 (stereo not shown) [Cpd 120]
% I (1 μM): 102% | IC50 (read-out: IC50): 0.39 µM

CCOP(=O)(OCC)C(Cc1ccc(F)c(C(F)(F)F)c1)c1sc2ccccc2c1Cl (racemic) [Cpd 294]
% I (0.5 μM): 103% | IC50 (read-out: IC50): 0.118 µM

CC(C)OP(=O)(OC(C)C)C(Cc1cccc(Cl)c1)c1sc2ccccc2c1Br (racemic) [Cpd 166]
% I (0.5 μM): 102% | % I (1 μM): 103% | IC50 (read-out: IC50): 0.018 µM and 0.014 µM
